Measurements: patent publication US20050008607A1, “Composition containing a carbonyl amine” (priority 2003, published 2005)
Entries after “also recorded” stand apart in the source; their conditions may differ.

What was measured:
[1] = test system: human striated muscle cells innervated with explants of spinal cord and of spinal ganglia from rat embryos; format: cell-based
wrinkles = settings: in vivo; cited from earlier work

Q: With `CCCCCC(=O)CCN(CC)CCCc1ccccc1` [Compound (4)] as the compound, how does the “contractions of three muscle fibres” value ([1]; 100 μM, incubated for 60 seconds, contractions counted over 30 seconds) read?
A: blocks the contractions

Q: With botulinum toxin as the compound, how does the “blocking effect on contractions” value [1] read?
A: blocking effect which is much weaker; also recorded: complete

Q: What about the “blocking of the contractions” value [1] of the same compound?
A: completely blocks the contractions

Q: And the “frequency of the contractions” value [1]?
A: greatly decreases the frequency of the contractions

Q: With `CN1C(=O)CN=C(c2ccccc2)c2cc(Cl)ccc21` [diazepam, reference compound] as the compound, how does the muscle fibre contractions [1] read?
A: inhibited muscle fibre contractions

Q: And the anti-wrinkle activity (wrinkles)?
A: demonstrated in vivo
